Experimental data as given in patent US20170037028A1 (BAYER PHARMA AKTIENGESELLSCHAFT, priority 2013, published 2017).

Biological target: T1, GLUT1 (Homo sapiens, UniProt P11166)
T1 sequence (P11166 1-492): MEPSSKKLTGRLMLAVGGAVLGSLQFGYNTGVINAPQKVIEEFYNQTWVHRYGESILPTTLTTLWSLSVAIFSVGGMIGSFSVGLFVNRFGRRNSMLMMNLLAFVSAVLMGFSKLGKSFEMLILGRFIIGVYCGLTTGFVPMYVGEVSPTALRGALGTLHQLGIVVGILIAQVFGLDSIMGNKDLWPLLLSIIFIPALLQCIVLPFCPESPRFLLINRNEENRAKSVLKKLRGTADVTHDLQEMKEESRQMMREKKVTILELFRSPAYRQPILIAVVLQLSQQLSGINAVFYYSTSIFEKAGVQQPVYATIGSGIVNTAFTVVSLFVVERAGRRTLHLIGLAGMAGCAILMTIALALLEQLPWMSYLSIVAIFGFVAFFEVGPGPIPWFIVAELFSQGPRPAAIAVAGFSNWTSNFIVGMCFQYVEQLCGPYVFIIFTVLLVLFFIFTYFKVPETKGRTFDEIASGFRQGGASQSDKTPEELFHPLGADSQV
Assay: Indirect measurement of GLUT1 activity by quantification of intracellular ATP levels (glucose induced ATP increase)
Type: cell-based
Parameters: endogenous in cells; host or cells: DLD1 or CHO-K1
Settings: read-out: IC50 regarding glucose induced ATP increase (GLUT1 inhibition)
Description: Indirect Measurement of GLUT1 and GLUT2 Activity by Quantification of Intracellular ATP Levels
It is well known that a combination of small-molecule inhibitors of mitochondrial electron transport chain and glucose catabolism synergistically suppress ATP production and impair cellular viability (Ulanovskaya et al., 2008, 2011; Liu, et al. 2001). We therefore used DLD1 or CHO-K1 cells in combination with an oxidative phosphorylation inhibitor to identify GLUT1 and GLUT2 inhibitors. Cell lines were maintained in DMEM medium supplemented with 10% FCS and 1% Penicillin-Streptomycin solution and 2% Glutamax. The cells were treated with trypsin and seeded into 384 plates at a density of 4000 cells/well. The cells were then cultured overnight in glucose free media containing 1% FCS to reduce intracellular ATP levels. […] The CellTiter-Glo® Luminescent Cell Viability Assay from Promega was then used to measure ATP Levels.

Row | SMILES | IC50
1 | Cc1nn(Cc2ccc(F)cc2)c(C)c1NC(=O)c1cc(C(C)C)nc2ccc(Br)cc12 [Example 2, 6-bromo-N-[1-(4-fluorobenzyl)-3,5-dimethyl-1H-pyrazol-4-yl]-2-(propan-2-yl)quinoline-4-carboxamide] | 2.8 nM
2 | COc1ccc(Cn2nc(C)c(NC(=O)c3cc(C(F)(F)F)nc4ccc(Br)cc34)c2C)cc1 [Example 3, 6-bromo-N-[1-(4-methoxybenzyl)-3,5-dimethyl-1H-pyrazol-4-yl]-2-(trifluoromethyl)quinoline-4-carboxamide] | 3.1 nM
3 | COc1ccc(Cn2nc(C)c(NC(=O)c3cc(C)nc4ccc(C)cc34)c2C)cc1 [Example 4, N-[1-(4-methoxybenzyl)-3,5-dimethyl-1H-pyrazol-4-yl]-2,6-dimethylquinoline-4-carboxamide] | 3.8 nM
4 | Cc1nn(Cc2ccccc2C#N)c(C)c1NC(=O)c1cc(C(F)(F)F)nc2ccc(Br)cc12 [Example 6, 6-bromo-N-[1-(2-cyanobenzyl)-3,5-dimethyl-1H-pyrazol-4-yl]-2-(trifluoromethyl)quinoline-4-carboxamide] | 4.7 nM
5 | Cc1ccc2nc(C3CC3)cc(C(=O)Nc3c(C)nn(Cc4ccc(F)cc4)c3C)c2c1 [Example 7, 2-cyclopropyl-N-[1-(4-fluorobenzyl)-3,5-dimethyl-1H-pyrazol-4-yl]-6-methylquinoline-4-carboxamide] | 4.9 nM
6 | COc1ccc(Cn2nc(C)c(NC(=O)c3cc(C(F)(F)F)nc4c(Cl)cc(Cl)cc34)c2C)cc1 [Example 8, 6,8-dichloro-N-[1-(4-methoxybenzyl)-3,5-dimethyl-1H-pyrazol-4-yl]-2-(trifluoromethyl)quinoline-4-carboxamide] | 5.4 nM
7 | Cc1nn(Cc2ccc(F)cc2)c(C)c1NC(=O)c1cc(C(F)(F)F)nc2ccc(Br)cc12 [Example 9, 6-bromo-N-[1-(4-fluorobenzyl)-3,5-dimethyl-1H-pyrazol-4-yl]-2-(trifluoromethyl)quinoline-4-carboxamide] | 6.2 nM
8 | Cc1nn(Cc2ccc(F)cc2)c(C)c1NC(=O)c1cc(C2CC2)nc2ccc(F)cc12 [Example 10, 2-cyclopropyl-6-fluoro-N-[1-(4-fluorobenzyl)-3,5-dimethyl-1H-pyrazol-4-yl]quinoline-4-carboxamide] | 6.4 nM
9 | Cc1nn(Cc2ccc(C#N)cc2)c(C)c1NC(=O)c1cc(C(F)(F)F)nc2c(Cl)cc(Cl)cc12 [Example 11, 6,8-dichloro-N-[1-(4-cyanobenzyl)-3,5-dimethyl-1H-pyrazol-4-yl]-2-(trifluoromethyl)quinoline-4-carboxamide] | 6.6 nM
10 | Cc1nn(Cc2ccc(F)cc2)c(C)c1NC(=O)c1cc(C2CC2)nc2ccc(Br)cc12 [Example 12, 6-bromo-2-cyclopropyl-N-[1-(4-fluorobenzyl)-3,5-dimethyl-1H-pyrazol-4-yl]quinoline-4-carboxamide] | 7.7 nM
11 | Cc1nn(Cc2c(F)cccc2F)c(C)c1NC(=O)c1cc(C(F)(F)F)nc2ccc(Br)cc12 [Example 13, 6-bromo-N-[1-(2,6-difluorobenzyl)-3,5-dimethyl-1H-pyrazol-4-yl]-2-(trifluoromethyl)quinoline-4-carboxamide] | 11.3 nM
12 | Cc1nn(Cc2ccc(F)cc2)c(C)c1NC(=O)c1cc(C(F)(F)F)nc2ccc(Cl)cc12 [Example 14, 6-chloro-N-[1-(4-fluorobenzyl)-3,5-dimethyl-1H-pyrazol-4-yl]-2-(trifluoromethyl)quinoline-4-carboxamide] | 11.5 nM
13 | Cc1nn(Cc2ccc(F)cc2)c(C)c1NC(=O)c1cc(C2CC2)nc2c(Br)cccc12 [Example 16, 8-bromo-2-cyclopropyl-N-[1-(4-fluorobenzyl)-3,5-dimethyl-1H-pyrazol-4-yl]quinoline-4-carboxamide] | 12.1 nM
14 | COc1cc(C(=O)Nc2c(C)nn(Cc3ccc(F)cc3F)c2C)c2ccccc2n1 [Example 17, N-[1-(2,4-difluorobenzyl)-3,5-dimethyl-1H-pyrazol-4-yl]-2-methoxyquinoline-4-carboxamide] | 12.2 nM
15 | Cc1nn(Cc2ccc(F)cc2)c(C)c1NC(=O)c1cc(C(F)(F)F)nc2c(Br)cccc12 [Example 18, 8-bromo-N-[1-(4-fluorobenzyl)-3,5-dimethyl-1H-pyrazol-4-yl]-2-(trifluoromethyl)quinoline-4-carboxamide] | 12.4 nM
16 | Cc1nn(Cc2ccc(F)cc2)c(C)c1NC(=O)c1cc(C2CC2)nc2ccccc12 [Example 19, 2-cyclopropyl-N-[1-(4-fluorobenzyl)-3,5-dimethyl-1H-pyrazol-4-yl]quinoline-4-carboxamide] | 12.7 nM
17 | Cc1nn(Cc2c(F)cccc2F)c(C)c1NC(=O)c1cc(C(F)(F)F)nc2c(Cl)cc(Cl)cc12 [Example 20, 6,8-dichloro-N-[1-(2,6-difluorobenzyl)-3,5-dimethyl-1H-pyrazol-4-yl]-2-(trifluoromethyl)quinoline-4-carboxamide] | 12.7 nM
18 | Cc1cc(Br)c2nc(C(F)(F)F)cc(C(=O)Nc3c(C)nn(Cc4ccc(F)cc4)c3C)c2c1 [Example 21, 8-bromo-N-[1-(4-fluorobenzyl)-3,5-dimethyl-1H-pyrazol-4-yl]-6-methyl-2-(trifluoromethyl)quinoline-4-carboxamide] | 14.8 nM
19 | Cc1nn(Cc2ccc(F)cc2)c(C)c1NC(=O)c1cc(C(F)(F)F)nc2ccc(Cl)c(Cl)c12 [Example 22, 5,6-dichloro-N-[1-(4-fluorobenzyl)-3,5-dimethyl-1H-pyrazol-4-yl]-2-(trifluoromethyl)quinoline-4-carboxamide] | 15.4 nM
20 | COc1cc(C(=O)Nc2c(C)nn(Cc3ccc(OC(F)(F)F)cc3)c2C)c2ccccc2n1 [Example 23, N-{3,5-dimethyl-1-[4-(trifluoromethoxy)benzyl]-1H-pyrazol-4-yl}-2-methoxyquinoline-4-carboxamide] | 15.4 nM
21 | Cc1ccccc1Cn1nc(C)c(NC(=O)c2cc(C(F)(F)F)nc3ccc(Br)cc23)c1C [Example 24, 6-bromo-N-[3,5-dimethyl-1-(2-methylbenzyl)-1H-pyrazol-4-yl]-2-(trifluoromethyl)quinoline-4-carboxamide] | 15.5 nM
22 | Cc1nn(Cc2ccc(F)cc2)c(C)c1NC(=O)c1cc(C(F)(F)F)nc2c(Cl)cc(Cl)cc12 [Example 25, 6,8-dichloro-N-[1-(4-fluorobenzyl)-3,5-dimethyl-1H-pyrazol-4-yl]-2-(trifluoromethyl)quinoline-4-carboxamide] | 15.7 nM
23 | Cc1nn(Cc2ccc(F)cc2)c(C)c1NC(=O)c1cc(C(F)(F)F)nc2cccc(F)c12 [Example 26, 5-fluoro-N-[1-(4-fluorobenzyl)-3,5-dimethyl-1H-pyrazol-4-yl]-2-(trifluoromethyl)quinoline-4-carboxamide] | 15.7 nM
24 | COc1cc(C(=O)Nc2c(C)nn(Cc3ccc(F)cc3)c2C)c2ccccc2n1 [Example 27, N-[1-(4-fluorobenzyl)-3,5-dimethyl-1H-pyrazol-4-yl]-2-methoxyquinoline-4-carboxamide] | 16.5 nM
25 | Cc1cccc(Cn2nc(C)c(NC(=O)c3cc(C(F)(F)F)nc4c(Cl)cc(Cl)cc34)c2C)c1 [Example 28, 6,8-dichloro-N-[3,5-dimethyl-1-(3-methylbenzyl)-1H-pyrazol-4-yl]-2-(trifluoromethyl)quinoline-4-carboxamide] | 16.8 nM
26 | Cc1nn(Cc2ccc(F)cc2)c(C)c1NC(=O)c1cc(C(F)(F)F)nc2cc(F)ccc12 [Example 29, 7-fluoro-N-[1-(4-fluorobenzyl)-3,5-dimethyl-1H-pyrazol-4-yl]-2-(trifluoromethyl)quinoline-4-carboxamide] | 19 nM
27 | Cc1nn(Cc2ccc(F)cc2)c(C)c1NC(=O)c1cc(C(F)(F)F)nc2ccc(F)cc12 [Example 30, 6-fluoro-N-[1-(4-fluorobenzyl)-3,5-dimethyl-1H-pyrazol-4-yl]-2-(trifluoromethyl)quinoline-4-carboxamide] | 19.5 nM
28 | Cc1ccc(Cn2nc(C)c(NC(=O)c3cc(C(F)(F)F)nc4c(Cl)cc(Cl)cc34)c2C)cc1 [Example 31, 6,8-dichloro-N-[3,5-dimethyl-1-(4-methylbenzyl)-1H-pyrazol-4-yl]-2-(trifluoromethyl)quinoline-4-carboxamide] | 20 nM
29 | Cc1c(NC(=O)c2cc(C(F)(F)F)nc3ccc(Br)cc23)c(C(F)(F)F)nn1Cc1ccc(F)cc1 [Example 32, 6-bromo-N-[1-(4-fluorobenzyl)-5-methyl-3-(trifluoromethyl)-1H-pyrazol-4-yl]-2-(trifluoromethyl)quinoline-4-carboxamide] | 20.5 nM
30 | Cc1nn(Cc2ccccc2)c(C)c1NC(=O)c1cc(C(F)(F)F)nc2ccc(Br)cc12 [Example 33, N-(1-benzyl-3,5-dimethyl-1H-pyrazol-4-yl)-6-bromo-2-(trifluoromethyl)quinoline-4-carboxamide] | 25 nM
